Results taken from US11104630B2, “Synthesis of mono-chlorinated acetophenone” (SIEGFRIED AG, priority 2017, dated 2021).

Test: Solubility of the starting material in the solvent
Assay type: physicochemical
Settings: 20° C., until clear solution
Experimental: Solubility of the Starting Material in the Solvent
To 1 g of HAP is added 5 ml of solvent. The mixture is stirred in a water bath at 20° C. The solvent is further slowly added under stirring until a clear solution appears.
The amount of used solvent is noted.

CC(=O)c1cccc(O)c1 [HAP, 3-hydroxy-acetophenon]
Solvent in ml per g HAP (solvent Acetone): 46 ml per g HAP
Solvent in ml per g HAP (solvent Acetonitrile): 6 ml per g HAP
Solvent in ml per g HAP (solvent Cyclohexane): >200 ml per g HAP
Solvent in ml per g HAP (solvent DCM): 22 ml per g HAP
Solvent in ml per g HAP (solvent Ethanol): 20 ml per g HAP
Solvent in ml per g HAP (solvent Ether): 8 ml per g HAP
Solvent in ml per g HAP (solvent Methanol): 10 ml per g HAP
Solvent in ml per g HAP (solvent Tetraglyme): 9 ml per g HAP
Solvent in ml per g HAP (solvent Toluene): 156 ml per g HAP
Solvent in ml per g HAP (solvent n-Heptane): 20 ml per g HAP
Solvent in ml per g HAP (solvent n-Hexane): 23 ml per g HAP
